In one assay the target is T1, hERG (Homo sapiens, UniProt Q12809).
T1 construct: purchased ThermoFisher
Put plainly: Biochemical assay for hERG inhibition (Predictor hERG Fluorescence Polarization Assay Kit). It is filed as binding. On the procedure:
Test Example 3: Biochemical Assay for hERG Inhibition
kit: Predictor™ hERG Fluorescence Polarization Assay Kit (ThermoFisher) containing:
Compound E4031 as a positive control;
tracer concentration: 1 nM;
incubation duration: 2 hours;
parameters for microplate reader: BMG PHERAstar FS fluorescence microplate reader.
Test group: The test compounds at different concentrations were added into a microplate containing hERG cell membrane, and the tracer with a high affinity for hERG was then added into each well. The microplate was incubated at 25° C. for 2 hours before detection of the change in fluorescence polarization value (mP) (excitation wavelength: 540 nm; emission wavelength: 590 nm) using a multi-mode microplate reader.
Positive control group: The experimental method for the positive control group was the same as that for the test group, except that the test compound was replaced with 30 μM Compound E4031.
Blank control group: The experimental method for the blank control group was the same as that for the test group, except that the test compound was replaced with the hERG buffer and that the hERG cell membrane was not added.
Based on the data ratios, the percentage inhibition (%) of the compounds of the present disclosure against hERG at different concentrations was calculated and the range of the half maximal inhibitory concentration (IC50) of the compounds was determined. Percentage inhibition (%)=(1−(mP of the test compound−mP of the positive control group)/(mP of the blank control group−mP of the positive control group))×100%.

Assay [1] concerns the target T2, recombinant full-length human PTPN11 (SHP2) (Homo sapiens, UniProt Q06124).
T2 construct: recombinant full-length human PTPN11 (SHP2), active (SignalChem); purchased SignalChem
T2 sequence (Q06124 1-593): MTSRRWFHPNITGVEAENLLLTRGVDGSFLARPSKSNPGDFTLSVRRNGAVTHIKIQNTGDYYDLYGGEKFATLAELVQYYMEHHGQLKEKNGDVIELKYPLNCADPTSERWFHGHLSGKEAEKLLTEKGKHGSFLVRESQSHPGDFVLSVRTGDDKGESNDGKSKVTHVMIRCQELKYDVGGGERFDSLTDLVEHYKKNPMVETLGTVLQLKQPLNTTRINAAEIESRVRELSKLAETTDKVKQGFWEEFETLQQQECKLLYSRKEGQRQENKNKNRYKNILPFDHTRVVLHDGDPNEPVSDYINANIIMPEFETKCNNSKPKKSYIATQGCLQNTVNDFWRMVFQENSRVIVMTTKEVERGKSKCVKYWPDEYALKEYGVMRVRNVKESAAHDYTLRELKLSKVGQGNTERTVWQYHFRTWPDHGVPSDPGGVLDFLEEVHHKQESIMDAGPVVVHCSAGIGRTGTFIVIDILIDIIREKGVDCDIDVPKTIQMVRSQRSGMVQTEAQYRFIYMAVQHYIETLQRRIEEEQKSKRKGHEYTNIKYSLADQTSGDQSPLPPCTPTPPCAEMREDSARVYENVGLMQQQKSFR
Put plainly: Inhibition of in vitro enzyme activity of SHP2 (DiFMUP fluorescence endpoint assay). The format is biochemical. The settings on record: SHP2 0.5 nM, DiFMUP 200 μM, IRS-1 0.5 μM; 60 min incubation. Put shortly: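 Full-length human SHP2 (0.5 nM) with 0.5 μM IRS1 bis-phosphopeptide preincubated with compound 60 min at room temperature, pH 7.2 HEPES with 5 mM DTT. DiFMUP (200 μM) reacted 30 min, stopped with bpv, fluorescence ex 340/em 450 nm. IC50 by four-parameter logistic fit.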

The next assay deals with T3, CYP2D6 (Homo sapiens, UniProt P10635).
T3 construct: purchased Promega
T3 sequence (P10635 whole entry): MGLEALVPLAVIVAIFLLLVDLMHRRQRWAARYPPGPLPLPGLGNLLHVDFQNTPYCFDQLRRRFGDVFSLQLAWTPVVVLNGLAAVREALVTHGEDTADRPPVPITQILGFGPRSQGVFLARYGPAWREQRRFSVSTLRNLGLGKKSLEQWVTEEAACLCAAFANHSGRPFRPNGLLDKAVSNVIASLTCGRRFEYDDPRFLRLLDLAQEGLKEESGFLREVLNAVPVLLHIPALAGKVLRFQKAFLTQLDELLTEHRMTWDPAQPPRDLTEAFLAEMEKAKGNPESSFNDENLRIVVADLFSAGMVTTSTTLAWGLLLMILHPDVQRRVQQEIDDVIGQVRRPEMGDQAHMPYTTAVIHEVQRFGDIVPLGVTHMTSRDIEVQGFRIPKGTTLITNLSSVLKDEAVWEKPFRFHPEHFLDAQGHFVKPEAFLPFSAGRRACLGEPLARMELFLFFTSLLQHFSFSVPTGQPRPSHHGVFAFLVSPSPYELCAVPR
Briefly: Biochemical assay for CYP enzyme inhibition, P450-Glo CYP2D6 Screening System. The format is in vitro ADME. On the procedure:
Test Example 5: Biochemical Assay for CYP Enzyme (Cytochrome P450) Inhibition
P450-Glo™ CYP2D6 Screening System, (Promega);
BMG PHERAstar FS Luminescent.
The experiments were carried out separately according to the instructions of the kits. The steps were as follows:
3.2. Inhibition Against CYP2D6:
Test group: The test compounds at different concentrations were added into a microplate, and Luciferin-ME EGE (3 μM), K3PO4 (100 mM), and CYP2D6 (5 nM) were added into each well, and pre-incubated at room temperature for 10 min. Thereafter, an NADPH regeneration system was added. The mixture was reacted at 37° C. for 30 min. Finally, an equal volume of detection buffer was added and incubated at room temperature for 20 min, followed by chemiluminescence detection.
Negative control group: The experimental method for the negative control group was the same as that for the test group, except that the test compound was not added.
Blank control group: The experimental method for the blank control group was the same as that for the test group, except that the test compound was not added and that CYP2D6 was replaced with CYP2D6 Membrance (5 nM).
Percentage inhibition=(1−(the chemiluminescent signal value of the test compound group at a certain test concentration−the chemiluminescent signal value of the blank control group)/(the chemiluminescent signal value of the negative control group−the chemiluminescent signal value of the blank control group))×100%.
When the percentage inhibition was between 30% and 80%, a single value or a value range of the half maximal inhibitory concentration (IC50) of the compound against the CYP enzyme was estimated based on the following equation: IC50=X×(1−percentage inhibition)/percentage inhibition, wherein X was the test concentration of the compound.

[2] abbreviates: estimated from percentage inhibition, read-out: IC50 (μM) CYP2D6.

Where two headings read alike, the source gives them in different places. A value given as a limit tells only on which side of the number the result lay.

T1 sequence (Q12809 whole entry): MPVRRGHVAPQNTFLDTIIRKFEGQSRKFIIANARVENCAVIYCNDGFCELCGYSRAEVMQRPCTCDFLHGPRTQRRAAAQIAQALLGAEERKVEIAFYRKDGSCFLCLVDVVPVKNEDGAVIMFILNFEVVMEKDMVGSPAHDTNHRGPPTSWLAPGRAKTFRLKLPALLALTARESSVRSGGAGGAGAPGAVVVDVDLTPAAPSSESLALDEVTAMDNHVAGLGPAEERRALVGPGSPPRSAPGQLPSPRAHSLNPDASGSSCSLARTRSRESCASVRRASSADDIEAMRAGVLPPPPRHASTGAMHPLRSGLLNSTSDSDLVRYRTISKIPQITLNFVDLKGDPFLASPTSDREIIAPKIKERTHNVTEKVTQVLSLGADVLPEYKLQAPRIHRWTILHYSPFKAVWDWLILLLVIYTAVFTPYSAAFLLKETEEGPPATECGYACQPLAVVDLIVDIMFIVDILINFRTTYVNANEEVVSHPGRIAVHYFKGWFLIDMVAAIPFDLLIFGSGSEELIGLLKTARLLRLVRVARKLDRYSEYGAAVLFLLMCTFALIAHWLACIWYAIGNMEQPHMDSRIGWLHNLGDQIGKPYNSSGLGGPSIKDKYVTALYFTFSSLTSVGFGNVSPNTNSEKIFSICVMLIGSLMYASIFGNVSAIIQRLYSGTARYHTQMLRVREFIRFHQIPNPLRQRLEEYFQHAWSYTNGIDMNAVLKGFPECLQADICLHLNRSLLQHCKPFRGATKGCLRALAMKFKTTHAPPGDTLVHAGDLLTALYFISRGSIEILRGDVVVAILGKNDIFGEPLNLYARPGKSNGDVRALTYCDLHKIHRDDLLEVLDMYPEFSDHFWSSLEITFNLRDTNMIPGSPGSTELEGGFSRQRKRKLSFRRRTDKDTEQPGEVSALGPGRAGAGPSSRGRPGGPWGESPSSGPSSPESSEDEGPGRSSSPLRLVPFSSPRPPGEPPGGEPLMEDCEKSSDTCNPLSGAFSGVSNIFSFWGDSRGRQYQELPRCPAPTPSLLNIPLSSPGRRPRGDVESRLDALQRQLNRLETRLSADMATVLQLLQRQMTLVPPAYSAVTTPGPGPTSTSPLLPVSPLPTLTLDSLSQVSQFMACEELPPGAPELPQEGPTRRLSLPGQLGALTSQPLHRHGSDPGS

Broadly, the IC50 is the midpoint of a concentration-inhibition curve. Take `CC(C)(O)C1CN(c2nccc(Sc3ncc(N4CCC5(CC4)Cc4ncccc4[C@H]5N)nc3N)c2Cl)C1` [Example 46, (S)-2-(1-(4-(3-amino-5-(5-amino-5,7-dihydrospiro[cyclopenta[b]pyridine-6,4′-piperidin]-1′-yl)pyrazin-2-ylthio)-3-chloropyridin-2-yl)azetidin-3-yl)propan-2-ol]: the IC50 at hERG (competition with affinity tracer 1 nM, 2 hours, read-out: IC50 (μM), hERG inhibition assay) is more than 10 µM; in assay [1], 2.6 nM; at CYP2D6 (setting [2]) it was more than 10 µM.

For the molecule `C[C@@H]1OCC2(CCN(c3ncc(Sc4ccnc(N5CC(C(C)(C)O)C5)c4Cl)nc3CO)CC2)[C@@H]1N` [Example 12, 2-(1-(4-(5-((3S,4S)-4-amino-3-methyl-2-oxa-8-azaspiro[4.5]decan-8-yl)-6-(hydroxymethyl)pyrazin-2-ylthio)-3-chloropyridin-2-yl)azetidin-3-yl)propan-2-ol], the results for the IC50 (on hERG; in assay [1]; on CYP2D6) were more than 10 µM, 2.5 nM and more than 10 µM, respectively.

Consider `CC(C)(O)C1CN(c2nccc(Sc3cnc(N4CCC5(CC4)COC[C@H]5N)c(CO)n3)c2Cl)C1` [Example 13, (S)-2-(1-(4-(5-(4-amino-2-oxa-8-azaspiro[4.5]decan-8-yl)-6-(hydroxymethyl)pyrazin-2-ylthio)-3-chloropyridin-2-yl)azetidin-3-yl)propan-2-ol], for which the values for the IC50 (on hERG; in assay [1]; on CYP2D6 (setting [2])) were more than 10 µM, 4.9 nM and more than 10 µM, respectively.

Turning to `C[C@@H]1OCC2(CCN(c3ncc(Sc4ccnc(N5CC(C)(CS(C)(=O)=O)C5)c4Cl)nc3CO)CC2)[C@@H]1N` [Example 29, (3-((3S,4S)-4-amino-3-methyl-2-oxa-8-azaspiro[4.5]decan-8-yl)-6-(3-chloro-2-(3-methyl-3-(methylsulfonylmethyl)azetidin-1-yl)pyridin-4-ylthio)pyrazin-2-yl)methanol], the half-inhibitory concentration (IC50) at hERG is more than 10 µM; in assay [1] it was 1.68 nM; against CYP2D6 it was more than 10 µM.

Take `C[C@@H]1OCC2(CCN(c3ncc(Sc4ccnc(N5CC(C)(CO)C5)c4Cl)nc3CO)CC2)[C@@H]1N` [Example 27, (3-((3S,4S)-4-amino-3-methyl-2-oxa-8-azaspiro[4.5]decan-8-yl)-6-(3-chloro-2-(3-(hydroxymethyl)-3-methylazetidin-1-yl)pyridin-4-ylthio)pyrazin-2-yl)methanol]: the half-inhibitory concentration (IC50) is more than 10 µM at hERG, 4.1 nM in assay [1] and more than 10 µM at CYP2D6.

With `C[C@@H]1OCC2(CCN(c3ncc(Sc4ccnc(N5CC(C(C)(C)O)C5)c4F)nc3CO)CC2)[C@@H]1N` [Example 40, 2-(1-(4-(5-((3S,4S)-4-amino-3-methyl-2-oxa-8-azaspiro[4.5]decan-8-yl)-6-(hydroxymethyl)pyrazin-2-ylthio)-3-fluoropyridin-2-yl)azetidin-3-yl)propan-2-ol], the IC50 is more than 10 µM at hERG, 4.13 nM in assay [1] and more than 10 µM against CYP2D6.

As for `C[C@@H]1OCC2(CCN(c3cnc(Sc4ccnc(N5CC(C(C)(C)O)C5)c4Cl)cn3)CC2)[C@@H]1N` [Example 28, 2-(1-(4-(5-((3S,4S)-4-amino-3-methyl-2-oxa-8-azaspiro[4.5]decan-8-yl)pyrazin-2-ylthio)-3-chloropyridin-2-yl)azetidin-3-yl)propan-2-ol], the values for the half-inhibitory concentration (IC50) (on hERG; in assay [1]; at CYP2D6) were more than 10 µM, 2.45 nM and more than 10 µM, respectively.

As for `C[C@@H]1OCC2(CCN(c3ncc(Sc4ccnc(N5CC(CS(C)(=O)=O)C5)c4Cl)nc3CO)CC2)[C@@H]1N` [Example 26, (3-((3S,4S)-4-amino-3-methyl-2-oxa-8-azaspiro[4.5]decan-8-yl)-6-(3-chloro-2-(3-(methylsulfonylmethyl)azetidin-1-yl)pyridin-4-ylthio)pyrazin-2-yl)methanol], the values for the IC50 (at hERG; in assay [1]; against CYP2D6) were more than 10 µM, 0.7 nM and more than 10 µM, respectively.

For `C[C@@H]1OCC2(CCN(c3ncc(Sc4ccnc(N5CCCC5CO)c4Cl)nc3CO)CC2)[C@@H]1N` (stereo partly drawn) [Example 2], the results for the half-maximal inhibitory concentration (IC50) (at hERG; in assay [1]; at CYP2D6 (setting [2])) were more than 10 µM, 1.82 nM and more than 10 µM, respectively.

The values above are taken from patent US20230212180A1, “SUBSTITUTED PYRAZINE COMPOUND, PHARMACEUTICAL COMPOSITION COMPRISING SAME, AND USE THEREOF” (Sichuan Kelun-Biotech Biopharmaceutical Co., Ltd., priority 2020, published 2023).
